# Laboratory results: US20040039211A1, “Tetrapyrroles” (DUKE UNIVERSITY AND NATIONAL JEWISH MEDICAL AND RESEARCH …, priority 2000, published 2004)
# Assays:
# [1] = SOD activity, xanthine oxidase/cytochrome c method; assay type: biochemical; conditions: for kcat, O2^− dismutation: competition with 10 μM cytochrome c, pH 7.8, 25° C.
# Protocol: FIG. 12. […] The v0 is the rate of reduction of 10 μM cytochrome c by O2. The vi is the rate of reduction of cytochome c inhibited by the porphyrin catalyst in the presence of 0.1 mM EDTA in 0.05 M tris buffer at pH 7.8. 40 μM xanthine. ˜2 nM xanthine oxidase at 25° C. The total volume of the assay solution is 3 mL.
# SOD Activity. Catalysis of the dismutating of O2 in vitro was followed by the xanthine oxidase/cytochrome c method (McCord et al, J. Biol. Chem. 244:6049 (1969)).
# Dismutation of superoxide anion, O2^−. Assays were conducted in 0.05 M aqueous phosphate buffer, pH 7.8, 0.1 mM EDTA, ±15 μg/mL of catalase, ±albumin. Rate constants for the reaction with O2^−were based upon the competition of the compounds with cytochrome c.
# Two metallotetrapyrroles were tested for antioxidant activity, in vitro. In particular, the compounds were assayed for their ability to dismutate superoxide in the indirect method that utilizes xanthine and xanthine oxidase to generate superoxide and cytochrome c reduction as indicator of superoxide flux. […] The compounds were also assayed for their ability to prevent lipid peroxidation of rat brain homogenates by iron and ascorbate. The mixture of iron and ascorbate generates reactive oxygen species that oxidize biological lipids and these oxidized lipids can be detected as species that react with thiobarbituric acid (TBARS).
# a) SOD activity determined using a xanthine oxidase/cytochrome c assay
# [2] = Cyclic voltammetry, metal-centered redox potential; assay type: physicochemical; conditions: 90/10 (v/v) methanol/aqueous solution, pH* 7.9
# Protocol: Manganese(III) Salen. The compound was prepared by the published procedure (Boucher, J. lnorg. Nucl. Chem. 36:531 (1974)). The uv/vis in water: ε235=3.70×10^4 cm^−1 M^−1, ε279=1.70×10^4 cm^−1 M^−1, ε397=4.60×10^3 cm^−M^−1. The elemental analysis: Anal. Calcd for Mn^IIIsalenCl, C16H14N2O2MnCl: C, 53.88; H, 3.96; N; 7.85. Found: C, 54.02; H, 4.06; N, 7.85. […] Based on the E1/2 of Mn^IIITM-2-PyP^5+, ferrocenemethanol and of K3Fe(CN)6 in water and methanol, the redox potential of Mn^III salen^+ in water was calculated to be E1/2=−0.13 V vs NHE.
# Electrochemistry of the Manganese(III) Biliverdin Dimethylester. Measurements were made using a CH Instruments model 600 voltammetric analyzer as described previously(Batinic-Haberle et al, Inorg. Chem. 38:4011 (1999)). A three-electrode system in a small volume (0.5-3.0 mL), with a 3 mm diameter glassy carbon button working electrode (Bioanalytical Systems), Ag/AgCl reference electrode (3 M NaCl, Bioanalytical Systems), and a Pt wire (0.5 mm) as auxiliary electrode, were used. The cyclic votammetry was performed on 0.5 mM (per manganese) methanol/aqueous (90/10, v/v) solutions of the compounds investigated. The ionic strength was kept at 0.10 M (NaCl), and 0.05 M tris buffer was used for pH^* adjustment. For calibration purposes, compounds of different hydrophilicities, […], (Kolthof et al, J. Phys. Chem. 39:945 (1935)) ferrocenemethanol and Mn^IIITM-2-PyP^5+ were studied in both aqueous and methanol/aqueous (90/10, v/v) solutions (I=0.10 M NaCl, 0.05 M tris buffer, pH^* 7.9). In all cases the measured E1/2 was 170 mV more positive in methanolic than in aqueous solution and this value was used to predict the redox potential in aqueous solution from measurement in methanol/aqueous solution.
# [3] = Hydrolysis / dissociation of the complex in methanol/aqueous or water solution; assay type: physicochemical
# Protocol: (§1) Uv/vis Spectroscopy. […] Also the effects of EDTA, H2O2, and the methanol/water ratio on the stability of the manganese(III) complex were examined. […] […] 79:699 (1960)). When needed the biliverdin and biliverdin dimethylester as well as their reduced forms bilirubin and bilirubin dimethylester were studied. […] In a week, at 25° C., only 14% of the complex dissociated. When the water content was increased to 43%, half the complex dissociated in a week.
# [4] = Degradation by H2O2 followed by uv/vis spectroscopy; assay type: physicochemical
# Text: Uv/vis Spectroscopy. […] Also the effects of EDTA, H2O2, and the methanol/water ratio on the stability of the manganese(III) complex were examined. […] 79:699 (1960)). When needed the biliverdin and biliverdin dimethylester as well as their reduced forms bilirubin and bilirubin dimethylester were studied. At μM concentrations, manganese(III) and iron(III) porphyrins are degraded by H2O2 in aqueous solution. pH 7.8 (Batinic-Haberle et al, Inorg. Chem. 38:4011 (1999), Everett et al, J. Trans. Faraday Soc. 49:410 (1953)). […] The reaction was followed in 90/10, v/v methanouaqueous solution at pH^* 7.9. […] The uv/vis spectroscopy indicated degradation via the reduction of biliverdin to bilirubin followed by loss of metal (Gray et al, J. Chem. Soc. 2276 (1961); Kuenzle et al, Biochem. J. 130:1147 (1972); […], Nature 899 (1962)). The interaction of biliverdin and bilirubin with H2O, was also followed in 0.05 M tris buffer, pH 7.8. As observed for its metal complex, biliverdin undergoes reduction by H2O2 via bilirubin. Under pseudo-first order conditions (6 mM to 60 mM H2O2, 60 μM biliverdin), the second-order rate constant was k=3×10^-3 M^-1 s^-1. Bilirubin is more resistant to H2O2 than biliverdin or its metal complex. The disappearance of bilirubin was followed at 435 nm (Gray et al, J. Chem. Soc. 2268 (1961)). Under conditions given above and at 60 mM H2O2, about 40% of the biliverdin and 14% of bilirubin was degraded within 4.4 hours, and about 14% of the complex was degraded inside 80 min.
# [5] = Stability in the presence of excess EDTA (uv/vis); assay type: physicochemical
# Protocol: as §1
# Solubility = assay type: physicochemical
substance,measurement,setting,value
Manganese(III) Biliverdin IX Dimethylester [{Mn^IIIBVDME}2],specific activity (SOD mimetic),[1],"10,700 units/mg"
same,effect of albumin on SOD-like activity,[1]; 1:1 albumin to compound ratio,no negative effect of albumin was observed
same,decrease of SOD-like activity in the presence of albumin,[1]; albumin to compound ratio 3,50%
same,SOD specific activity,"[1]; per manganese, 1 unit = quantity (mg) per 3.0 mL causing 50% inhibition of reduction of 10 μM cytochrome c",10700 U/mg
same,"kcat, O2^− dismutation",[1]; per manganese,5.5e+07 M⁻¹ s⁻¹
same,"kcat, O2^− dismutation","[1]; per manganese, listed as compound of FIG. 2C",5.5e+07 M⁻¹ s⁻¹
same,"kcat, O2^− dismutation","[1]; per manganese, listed as ½ {Mn^III/IVBVDME^0/−}2",5.5e+07 M⁻¹ s⁻¹
same,SOD Activity,[1]; xanthine oxidase/cytochrome c assay,"10,700 USOD/mg"
same,"E1/2, V vs Ag/AgCl",[2]; Mn(III)/Mn(II) couple,−0.32 V vs Ag/AgCl
same,"E1/2, V vs Ag/AgCl",[2]; Mn(III)/Mn(IV) couple,+0.36 V vs Ag/AgCl
same,"E1/2, V vs Ag/AgCl","[2]; Mn(III)/Mn(IV) couple, listed as ½ {Mn^III/IVBVDME^0/−}2",−0.36 V vs Ag/AgCl
same,fraction of complex dissociated (hydrolysis),"[3]; 90/10 methanol/aqueous, pH* 7.9, one week, 25° C.",14%
same,fraction of complex dissociated (hydrolysis),"[3]; water content 43%, one week",half
same,fraction degraded by H2O2,"[4]; 60 mM H2O2, inside 80 min",about 14%
same,second-order rate constant k of H2O2 induced degradation,"[4]; 90/10 v/v methanol/aqueous, pH* 7.9, 6 mM to 120 mM H2O2, 15 and 30 μM complex",0.00064 M⁻¹ s⁻¹
same,stability in the presence of EDTA,"[5]; 1 μM, 900-fold excess EDTA (0.9 mM), 2-4 hours, 25° C., methanol/aqueous (90/10), 0.05 M tris, pH* 7.9",stable
same,stability in the presence of EDTA,"[5]; 20 μM, 900-fold excess of EDTA, pH 7.8",stable
same,solubility in organic solvents,"Solubility; ethanol, methanol",soluble in ethanol and methanol
same,solubility in water,Solubility; water,~10^−8 M
